What was measured:
dog hepatocytes = experiment: In vitro metabolism of 14C-amifampridine in dog hepatocytes (Example 2); format: in vitro ADME
Description: (§1) The objective of this hepatocyte study was to determine the extent of metabolism, complete metabolic profile and metabolite characterization of amifampridine phosphate in several species with ^14C-amifampridine phosphate for a cross species comparison. The following procedures were used to study the metabolism in rat (Example 1), dog (Example 2), and human hepatocytes (Example 3).
(§2) The cryopreserved hepatocytes were removed from storage, quickly thawed in a 37° C. water bath for 1 to 2 min, and transferred to a 50 ml tube containing pre-warmed InVitroGRO HT medium (Celsis Inc., Baltimore). The cell suspension was mixed by gentle inversion and the cells were pelleted by centrifugation at 50 to 75×g for 5 min. The supernatant medium was removed and the cells were resuspended in Williams' Medium E. Hepatocyte viability was assessed by using trypan blue exclusion. Hepatocyte density was determined by counting cells with a hemocytometer and the density was adjusted with Williams' Medium E to achieve a final density of 1,000,000 cells/mL. […] The supernatant medium was removed and the cells were resuspended in cold Williams' Medium E. The cell density was then determined using a hemocytometer and the density was adjusted with Williams' Medium E to achieve a final density of 1,000,000 cells/mL. […]

human hepatocytes = experiment: In vitro metabolism of 14C-amifampridine in human hepatocytes (Example 3); format: in vitro ADME; settings: multiple donors
Description: as §1, §2

Nc1ccncc1N [3,4-DAP, 3,4-diaminopyridine]
conversion of 3,4-DAP to its metabolite (dog hepatocytes): No conversion
formation of single major acetylated amifampridine metabolite (human hepatocytes): variable

— patent publication US11274332B2, “Methods of administering 3,4-diaminopyridine” (SERB SA, priority 2011, dated 2022)
